Results on 16 compounds are retold here after article PMC5011961, “In vitro antimicrobial activities of animal-used quinoxaline 1,4-di-N-oxides against mycobacteria, mycoplasma and fungi” (BMC Veterinary Research, 2016).

Molecules are shown by their SMILES. In brackets after ≈: the same amount, converted by molar mass. Where two headings read alike, the source gives them in different places.

The subject of series [1] is PRRSV. Put plainly: Antiviral assay (CPE/MTT; adsorption inhibition, infection inhibition, virucidal). The class given is cell-based, porcine reproductive and respiratory syndrome virus. Also noted: key to IC50: “--”represent not detected owing to the low inhibition ratio. The following applies: for IC50: PRRSV, mean±SD of four experiments.
Series [2] deals with IBDV. The series is described as above. The following applies: for IC50: IBDV, mean±SD of four experiments. The class given is cell-based, infectious bursal disease virus. Also noted: key to IC50: “--” represent not detected owing to the low inhibition ratio.
The test system of series [3] is PK-15 cells. Put plainly: Cytotoxicity assay (MTT). The following applies: for TC50: PK-15, 72 h, MTT, mean ± SD, n = 4; for MNTC: PK-15, maximum non-cytotoxic concentration (90 % cell viability).
Series [4] has as its system Marc-145 cells. Put plainly: Cytotoxicity assay (MTT). Conditions: for TC50: Marc-145, 72 h, MTT, mean ± SD, n = 4; for MNTC: Marc-145, maximum non-cytotoxic concentration (90 % cell viability).
The subject of series [5] is DF-1 cells. Put plainly: Cytotoxicity assay (MTT). Conditions: for TC50: DF-1, 72 h, MTT, mean ± SD, n = 4; for MNTC: DF-1, maximum non-cytotoxic concentration (90 % cell viability).
Series [6] relates to PPV. The experiment in a line: Antiviral assay (CPE/MTT; adsorption inhibition, infection inhibition, virucidal). Also noted: key to IC50: “--” represent not detected owing to the low inhibition ratio. The class given is cell-based, porcine parvovirus. The following applies: for IC50: PPV, mean±SD of four experiments.
In series [7] the test system is M. gallisepticum. Put plainly: Antimycoplasma assay, MIC in microtiter plates. The following applies: Mycoplasmoides gallisepticum.
Description: Briefly, 96-well microtiter Sensititre plates containing stabilized and freeze-dried antimicrobials were used. Three wells on each plate were set as antimicrobial free growth control. Freshly thawed mycoplasma isolates with known titers were diluted in liquid medium until the number of organisms reached 10^4 color changing units/mL. 50 μL of the diluted culture was transferred into each well of the Sensititre plates. […] The plates were sealed using an adhesive foil and incubated at 36 °C for 14 days. The growth of M. hyopneumoniae was observed daily when the color of the medium changed from red to yellow (phenol red indicator), and the initial and final MICs were recorded.
Series [8] relates to M. tuberculosis H37Rv ATCC 27294. Put plainly: Microdilution alamar blue assay (MABA). The class given is cell-based, Mycobacterium tuberculosis. (In broth dilution the organism is exposed to a series of concentrations in liquid medium.)
In series [9] the test system is M. bovis ATCC 19210. The experiment in a line: microbe, parasite or virus in culture. The class given is cell-based, Mycobacterium bovis.
Where [10] appears, read: M. gallisepticum BG44T (10^4ccu/mL).
The mark [11] stands for this setting: M. gallisepticum PG31 (10^8 ccu/mL).
Where [12] appears, read: Mycobacterium tuberculosis, read-out: MIC.
Setting [13] is: Mycobacterium tuberculosis variant bovis, ATCC19210.
Setting [14] is: in words, infection inhibition, virucidal and adsorption inhibition assays.

For the compound `N#CCC(=O)N/N=C/c1c[n+]([O-])c2ccccc2n1` [Cy10, N1-deoxy cyadox], the IC50 result in series [1] (Inactivation), in series [1] (Prevention), in [1] (Treatment), in [2] (Inactivation), in series [2] (Prevention) and in series [2] (Treatment) was “--” each time. Also, the IC50 result in [6] (Inactivation), in series [6] (Prevention) and in [6] (Treatment) was “--” in each case. The TC50 amounted to 25.27 ± 1.55 µg/mL (≈ 99 µM) in series [3], 33.62 ± 1.85 µg/mL (≈ 132 µM) in [4] and 49.2 ± 1.93 µg/mL (≈ 193 µM) in series [5]. Also, the MNTC in series [3], in series [4] and in series [5] was 2.0 µg/mL each time.
In the case of `CN1C[C@@H]2C[C@H]1CN2c1cc2c(cc1F)c(=O)c(C(=O)O)cn2C1CC1` [Danofloxacin, danofloxacin], the MIC in series [7] (setting [10]) and in series [7] (setting [11]) was 0.05 µg/mL (≈ 0.14 µM) in each case.
Take `CCC[C@@H]1C[C@@H](C(=O)N[C@@H]([C@H]2O[C@H](SC)[C@H](O)[C@@H](O)[C@H]2O)[C@@H](C)O)N(C)C1` [Lincomycin, lincomycin]: the MIC in [7] (setting [10]) and in series [7] (setting [11]) was 8 µg/mL (≈ 19.7 µM) each time.
With `NC(=O)c1cnccn1` [Pyrazinamide, pyrazinamide], the MIC in [8] (setting [12]) and in series [9] (setting [13]) was 0.8 µg/mL (≈ 6.5 µM) throughout.
As to `CN(C)[C@@H]1C(O)=C(C(N)=O)C(=O)[C@@]2(O)C(O)=C3C(=O)c4c(O)cccc4[C@@](C)(O)[C@H]3C[C@@H]12` [Tetracycline, tetracycline], the figures for the MIC in [7] (setting [10]) and in series [7] (setting [11]) were 0.4 µg/mL (≈ 0.9 µM) and 0.8 µg/mL (≈ 1.8 µM), respectively.
Turning to `CO[C@@H]1[C@@H](O[C@@H]2O[C@H](C)[C@@H](O[C@H]3C[C@@](C)(O)[C@@H](OC(=O)CC(C)C)[C@H](C)O3)[C@H](N(C)C)[C@H]2O)[C@@H](CC=O)C[C@@H](C)[C@@H](O)/C=C/C=C/C[C@@H](C)OC(=O)C[C@H]1O` [Kitasamycin, kitasamycin], the MIC in series [7] (setting [10]) and in series [7] (setting [11]) was 0.05 µg/mL (≈ 0.0636 µM) throughout.
As to `Cc1nc2ccccc2nc1C(C)O` (centres unmarked) [M5, carbonyl reduction bi-deoxy mequindox], the half-inhibitory concentration (IC50) result in series [1] (Inactivation), in series [1] (Prevention), in [1] (Treatment), in [2] (Inactivation), in [2] (Prevention) and in [2] (Treatment) was “--” in each case. For the same compound, the IC50 result in [6] (Inactivation), in series [6] (Prevention) and in [6] (Treatment) was “--” throughout. The TC50 in [3] was determined as 40.41 ± 3.21 µg/mL (≈ 215 µM); in series [4], 89.66 ± 2.14 µg/mL (≈ 476 µM); in series [5], 38.2 ± 2.09 µg/mL (≈ 203 µM). For the same compound, the MNTC in series [3], in series [4] and in [5] was 2.0 µg/mL in each case.
For `NC[C@H]1O[C@H](O[C@H]2[C@H](O)[C@@H](O[C@H]3O[C@H](CO)[C@@H](O)[C@H](N)[C@H]3O)[C@H](N)C[C@@H]2N)[C@H](O)[C@@H](O)[C@@H]1O` [Kanamycin], the MIC in series [8] and in series [9] (M. bovis ATCC 19210) was 0.2 µg/mL (≈ 0.413 µM) in each case.
Consider `Cc1c(C(C)O)[n+]([O-])c2ccccc2[n+]1[O-]` (centres unmarked) [M6, carbonyl reduction mequindox], for which the IC50 result in [1] (Inactivation), in series [1] (Prevention), in series [1] (Treatment), in series [2] (Inactivation), in series [2] (Prevention) and in series [2] (Treatment) was “--” in each case. Moreover, the IC50 entry in [6] (Inactivation), in series [6] (Prevention) and in series [6] (Treatment) was “--” throughout. The TC50 in [3] came out at 78.82 ± 3.57 µg/mL (≈ 358 µM); in series [4], 89.82 ± 1.57 µg/mL (≈ 408 µM); in [5] it was 41.26 ± 1.27 µg/mL (≈ 187 µM). For the same compound, the MNTC in series [3], in [4] and in series [5] was 2.0 µg/mL throughout.
Regarding `CC[C@@H](CO)NCCN[C@@H](CC)CO` [Ethambutol, ethambutol], the MIC in series [8] (setting [12]) and in series [9] (setting [13]) was 0.025 µg/mL (≈ 0.122 µM) in each case.
Take `Cc1c(C(C)O)nc2ccccc2[n+]1[O-]` (centres unmarked) [M4, carbonyl reduction N1-deoxy mequindox]: the IC50 result in series [1] (Inactivation), in series [1] (Prevention), in [1] (Treatment), in series [2] (Inactivation), in [2] (Prevention) and in series [2] (Treatment) was “--” throughout. Moreover, the IC50 entry in [6] (Inactivation), in series [6] (Prevention) and in [6] (Treatment) was “--” in each case. Moreover, the TC50 in series [3] was 40.81 ± 1.27 µg/mL (≈ 200 µM); in series [4] it was 128.62 ± 2.67 µg/mL (≈ 630 µM); in series [5], 37.75 ± 2.68 µg/mL (≈ 185 µM). For the same compound, the values for the MNTC in series [3], in series [4] and in [5] were 3.9 µg/mL, 3.9 µg/mL and 1.0 µg/mL, respectively.
Consider `C[C@H]1c2cccc(O)c2C(=O)C2=C(O)[C@]3(O)C(=O)C(C(N)=O)=C(O)[C@@H](N(C)C)[C@@H]3[C@@H](O)[C@@H]21` [Doxycycline, doxycycline], for which the results for the MIC in [7] (setting [10]) and in [7] (setting [11]) were 0.1 µg/mL (≈ 0.225 µM) and 0.2 µg/mL (≈ 0.45 µM), respectively.
In the case of `NC(=O)c1ncn([C@@H]2O[C@H](CO)[C@@H](O)[C@H]2O)n1` [Ribavirin, ribavirin], the concentration for half-maximal inhibition (IC50) amounted to 6.29 ± 0.38 µg/mL in [1] (Porcine reproductive and respiratory syndrome virus, Inactivation, read-out: IC50); 9.58 ± 0.56 µg/mL in series [1] (Porcine reproductive and respiratory syndrome virus, Prevention, read-out: IC50); 4.64 ± 0.24 µg/mL in series [1] (Porcine reproductive and respiratory syndrome virus, Treatment, read-out: IC50); 1.18 ± 0.21 µg/mL in series [2] (Infectious bursal disease virus, Inactivation, read-out: IC50); 0.87 ± 0.18 µg/mL in series [2] (Infectious bursal disease virus, Prevention, read-out: IC50); 0.58 ± 0.12 µg/mL in series [2] (Infectious bursal disease virus, Treatment, read-out: IC50). The IC50 in [6] (Porcine parvovirus, Inactivation, read-out: IC50) is 0.85 ± 0.17 µg/mL; in series [6] (Porcine parvovirus, Prevention, read-out: IC50), 0.68 ± 0.15 µg/mL; in series [6] (Porcine parvovirus, Treatment, read-out: IC50), 0.49 ± 0.07 µg/mL. The “effectiveness against PRRSV in vitro” value in series [1] (setting [14]) is reported as “good inhibitory activity”. In series [2] (setting [14]), the “effectiveness against IBDV in vitro” value was “good inhibitory activity”. The values for the TC50 in series [4] and in series [5] were 75.49 ± 2.54 µg/mL (≈ 309 µM) and 67.42 ± 2.58 µg/mL (≈ 276 µM), respectively. Moreover, the figures for the MNTC in series [4] and in [5] were 8.6 µg/mL and 4.0 µg/mL, respectively. For the same compound, in series [6] (setting [14]), the “effectiveness against PPV in vitro” value is listed as “good inhibitory activity”.
Regarding `CC(=O)c1nc2ccccc2nc1C` [M1, bi-deoxy Mequindox], the half-maximal inhibitory concentration (IC50) result in series [1] (Inactivation), in series [1] (Prevention), in series [1] (Treatment), in [2] (Inactivation), in series [2] (Prevention) and in [2] (Treatment) was “--” each time. For the same compound, the IC50 result in series [6] (Inactivation), in series [6] (Prevention) and in series [6] (Treatment) was “--” in each case. Further, the results for the TC50 in [3], in [4] and in [5] were 72.90 ± 2.66 µg/mL (≈ 391 µM), 70.77 ± 1.57 µg/mL (≈ 380 µM) and 54.8 ± 1.93 µg/mL (≈ 294 µM), respectively. The MNTC in series [3] stood at 2.0 µg/mL; in series [4], 1.0 µg/mL; in series [5], 1.0 µg/mL.
For the compound `N#CCC(=O)N/N=C/c1cnc2ccccc2[n+]1[O-]` [Cy2, N4-deoxy cyadox], the IC50 result in series [1] (Inactivation), in series [1] (Prevention), in series [1] (Treatment), in series [2] (Inactivation), in [2] (Prevention) and in series [2] (Treatment) was “--” throughout. Further, the half-maximal inhibitory concentration (IC50) result in series [6] (Inactivation), in [6] (Prevention) and in [6] (Treatment) was “--” each time. The results for the TC50 in [3], in series [4] and in series [5] were 51.73 ± 2.96 µg/mL (≈ 203 µM), 96.55 ± 3.12 µg/mL (≈ 378 µM) and 35.48 ± 2.87 µg/mL (≈ 139 µM), respectively. Moreover, the MNTC in series [3] was found to be 2.0 µg/mL; in series [4], 2.0 µg/mL; in [5], 1.0 µg/mL.
For the compound `N#CCC(=O)N/N=C/c1cnc2ccccc2n1` [Cy1, bi-deoxy Cyadox], the IC50 entry in [1] (Inactivation), in series [1] (Prevention), in series [1] (Treatment), in series [2] (Inactivation), in series [2] (Prevention) and in series [2] (Treatment) was “--” in each case. Besides, the IC50 entry in [6] (Inactivation), in series [6] (Prevention) and in [6] (Treatment) was “--” each time. The TC50 in series [3] stood at 23.40 ± 2.14 µg/mL (≈ 97.8 µM); in [4], 37.83 ± 1.67 µg/mL (≈ 158 µM); in series [5] it was 32.97 ± 2.35 µg/mL (≈ 138 µM). In addition, the MNTC amounted to 2.0 µg/mL in [3], 3.9 µg/mL in series [4] and 2.0 µg/mL in series [5].

Broadly, the IC50 is the concentration that gives 50% inhibition.
